Laboratory results as given in patent publication US20240083857A1, “2-Methyl-Quinazolines” (Bayer Pharma Aktiengesellschaft, priority 2017, published 2024).
Where two headings read alike, the source gives them in different places.

Tests used:
[1] = target: human SOS1 (nucleotide exchange of K-Ras^G12C) (Homo sapiens, UniProt Q07889); experiment: Biochemical assay 2: K-Ras^G12C activation assay by hSOS1 at high GTP concentration (HTRF); conditions: for IC50: E-notation values, unit inferred, 50 μM GTP, read-out: Assay 2 (KRAS-Activation, high GTP) IC50; for inhibition at 20 µM: read-out: Assay 2 (KRAS-Activation by SOS high GTP) activity expressed as % inhibition at 20 μM, high GTP
[2] = target: Epidermal Growth Factor Receptor (EGFR) (Homo sapiens (Human), UniProt P00533); experiment: EGFR kinase assay (TR-FRET); format: biochemical
How it was run: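 Read-out is the 665/620 nm HTRF ratio, from a Tb-cryptate anti-phosphotyrosine antibody and streptavidin-XL665 bound to phosphorylated biotin-peptide substrate. The enzyme, A431-derived EGFR (~3 U/ml), was given 15 min compound pre-binding at 22° C in Hepes pH 7.0 with Mg2+/Mn2+ before reaction.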

[3] = in μM, read-out: EGFR-assay IC50
[4] = E-notation values, unit inferred, read-out: EGFR-assay IC50
[5] = values given in μM, read-out: EGFR kinase inhibition IC50

Chain of Epidermal Growth Factor Receptor (EGFR) (P00533 25-1210): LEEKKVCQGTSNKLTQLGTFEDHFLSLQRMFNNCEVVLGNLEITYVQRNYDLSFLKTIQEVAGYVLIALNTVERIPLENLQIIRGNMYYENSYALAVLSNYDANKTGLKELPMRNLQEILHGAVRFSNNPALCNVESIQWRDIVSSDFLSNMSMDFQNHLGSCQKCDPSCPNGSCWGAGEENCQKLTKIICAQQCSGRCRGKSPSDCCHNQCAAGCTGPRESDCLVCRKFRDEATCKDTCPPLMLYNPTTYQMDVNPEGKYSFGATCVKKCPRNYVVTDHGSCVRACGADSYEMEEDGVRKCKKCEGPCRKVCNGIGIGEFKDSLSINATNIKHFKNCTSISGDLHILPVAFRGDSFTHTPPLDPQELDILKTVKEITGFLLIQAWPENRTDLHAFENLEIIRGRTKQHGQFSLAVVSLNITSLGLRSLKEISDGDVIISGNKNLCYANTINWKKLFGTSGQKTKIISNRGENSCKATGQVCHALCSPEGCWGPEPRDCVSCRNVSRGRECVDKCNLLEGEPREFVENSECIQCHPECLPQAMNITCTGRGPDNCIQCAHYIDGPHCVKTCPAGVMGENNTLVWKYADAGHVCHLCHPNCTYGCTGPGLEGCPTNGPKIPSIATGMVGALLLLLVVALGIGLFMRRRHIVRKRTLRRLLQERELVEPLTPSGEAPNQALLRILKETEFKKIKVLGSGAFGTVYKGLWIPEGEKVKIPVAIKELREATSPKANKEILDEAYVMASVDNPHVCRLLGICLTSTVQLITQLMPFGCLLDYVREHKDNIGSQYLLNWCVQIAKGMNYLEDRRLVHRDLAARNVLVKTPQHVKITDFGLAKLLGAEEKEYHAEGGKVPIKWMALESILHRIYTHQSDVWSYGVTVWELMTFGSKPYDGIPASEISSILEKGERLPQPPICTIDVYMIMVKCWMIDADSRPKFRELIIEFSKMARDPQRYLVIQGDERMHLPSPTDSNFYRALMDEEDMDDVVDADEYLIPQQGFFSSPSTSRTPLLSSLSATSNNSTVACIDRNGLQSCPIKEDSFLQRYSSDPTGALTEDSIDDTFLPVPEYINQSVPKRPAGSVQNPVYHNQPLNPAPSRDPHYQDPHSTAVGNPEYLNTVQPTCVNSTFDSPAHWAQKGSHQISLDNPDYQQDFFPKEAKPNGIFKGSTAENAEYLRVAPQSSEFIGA

SMILES | IC50 [1] | IC50 [2, 3] | IC50 [2, 4] | inhibition at 20 µM [1] | IC50 [2, 5]
COc1cc2nc(C)nc(NC(C)c3ccc(-c4ccc(F)cc4CNC(=O)CO)s3)c2cc1OC (stereo not shown) [Example 382, N-[2-(5-{1-[(6,7-dimethoxy-2-methylquinazolin-4-yl)amino]ethyl}thiophen-2-yl)-5-fluorobenzyl]-2-hydroxyacetamide] | 931 nM | > 20 µM |  |  | 
COc1cc2nc(C)nc(NC(C)c3ccc(-c4ccc(Cl)cc4CN)s3)c2cc1OC (stereo not shown) [Example 398, N-[1-{5-[2-(aminomethyl)-4-chlorophenyl]thiophen-2-yl}ethyl]-6,7-dimethoxy-2-methylquinazolin-4-amine] | 63.4 nM |  | > 20 µM |  | 
COc1cc2nc(C)nc(NC(C)c3ccc(-c4ccccc4CN(C)CC#N)s3)c2cc1OC (stereo not shown) [Example 456, {[2-(5-{1-[(6,7-dimethoxy-2-methylquinazolin-4-yl)amino]ethyl}thiophen-2-yl)benzyl](methyl)amino}acetonitrile] | 292 nM |  | > 20 µM |  | 
COc1cc2nc(C)nc(NC(C)c3ccc(-c4ccccc4CNC4CC4)s3)c2cc1OC (stereo not shown) [Example 370, N-[1-(5-{2-[(cyclopropylamino)methyl]phenyl}thiophen-2-yl)ethyl]-6,7-dimethoxy-2-methylquinazolin-4-amine] | 352 nM | > 20 µM |  |  | 
COc1cc2nc(C)nc(NC(C)c3sc(Br)cc3Cl)c2cc1OC (stereo not shown) [Example 428, N-[1-(5-bromo-3-chlorothiophen-2-yl)ethyl]-6,7-dimethoxy-2-methylquinazolin-4-amine] | 705 nM |  | > 20 µM |  | 
COc1cc2nc(C)nc(NC(C)c3sc(-c4ccccc4CNC(=O)OC(C)(C)C)cc3Cl)c2cc1OC (stereo not shown) [Example 429, tert-butyl [2-(4-chloro-5-{1-[(6,7-dimethoxy-2-methylquinazolin-4-yl)amino]ethyl}thiophen-2-yl)benzyl]carbamate] | 3050 nM |  | > 20 µM |  | 
COc1cc2nc(C)nc(NC(C)c3ccc(-c4ccccc4C(O)C(F)(F)F)s3)c2cc1OC (stereo not shown) [Example 380, 1-[2-(5-{1-[(6,7-dimethoxy-2-methylquinazolin-4-yl)amino]ethyl}thiophen-2-yl)phenyl]-2,2,2-trifluoroethanol] | 1600 nM | > 20 µM |  |  | 
COC(=O)c1ccc2nc(C)nc(N[C@H](C)c3cccc(Cl)c3)c2c1 [Example 371, methyl 4-{[(1R)-1-(3-chlorophenyl)ethyl]amino}-2-methylquinazoline-6-carboxylate] | 2420 nM | > 20 µM |  |  | 
CCCCC(O)c1ccccc1-c1ccc(C(C)Nc2nc(C)nc3cc(OC)c(OC)cc23)s1 (stereo not shown) [Example 377, 1-[2-(5-{1-[(6,7-dimethoxy-2-methylquinazolin-4-yl)amino]ethyl}thiophen-2-yl)phenyl]pentan-1-ol] | 9750 nM | > 20 µM |  |  | 
COc1cc(C)c2nc(C)nc(N[C@H](C)c3cccc(Cl)c3)c2c1 [Example 396, N-[(1R)-1-(3-chlorophenyl)ethyl]-6-methoxy-2,8-dimethylquinazolin-4-amine] | 1150 nM |  | > 20 µM |  | 
COc1cc2nc(C)nc(N[C@H](C)c3cccc(-c4ccccc4CC(N)=O)c3)c2cc1OC [Example 393, 2-(3′-{(1R)-1-[(6,7-dimethoxy-2-methylquinazolin-4-yl)amno]ethyl}biphenyl-2-yl)acetamide] | 975 nM |  | > 20 µM |  | 
Cc1nc(NC(C)c2ccc(-c3ccccc3CN(C)C)s2)c2cc(N3CCN(C)CC3)ccc2n1 (stereo not shown) [Example 417, N-[1-(5-{2-[(dimethylamino)methyl]phenyl}thiophen-2-yl)ethyl]-2-methyl-6-(4-methylpiperazin-1-yl)quinazolin-4-amine] | 28.9 nM |  | > 20 µM |  | 
Cc1nc(NC(C)c2ccc(Br)s2)c2cc(N3CCN(C)C(=O)C3)ccc2n1 (stereo not shown) [Example 434, 4-(4-{[1-(5-bromothiophen-2-yl)ethyl]amino}-2-methylquinazolin-6-yl)-1-methylpiperazin-2-one] | 2390 nM |  | 16.6 µM |  | 
COc1cc2nc(C)nc(NC(C)c3ccc(-c4ccccc4C(O)Cc4ccccc4)s3)c2cc1OC (stereo not shown) [Example 376, 1-[2-(5-{1-[(6,7-dimethoxy-2-methylquinazolin-4-yl)amino]ethyl}thiophen-2-yl)phenyl]-2-phenylethanol] | 18400 nM | > 20 µM |  |  | 
Cc1nc(NC(C)c2ccc(-c3ccccc3CN(C)C)s2)c2cc(N)ccc2n1 (stereo not shown) [Example 423, N4-[1-(5-{2-[(dimethylamino)methyl]phenyl}-2-thienyl)ethyl]-2-methylquinazoline-4,6-diamine] | 187 nM |  | > 20 µM |  | 
COc1cc2nc(C)nc(NC(C)c3cc(Cl)c(Br)s3)c2cc1OC (stereo not shown) [Example 432, N-[1-(5-bromo-4-chlorothiophen-2-yl)ethyl]-6,7-dimethoxy-2-methylquinazolin-4-amine] | 15700 nM |  | > 20 µM |  | 

SMILES | IC50 [1] | IC50 [2, 3] | IC50 [2, 4] | inhibition at 20 µM [1] | IC50 [2, 5]
COc1cc2nc(C)nc(NC(C)c3ccc(-c4ccccc4CNc4ccccc4)s3)c2cc1OC (stereo not shown) [Example 362, 6,7-dimethoxy-2-methyl-N-[1-(5-{2-[(phenylamino)methyl]phenyl}thiophen-2-yl)ethyl]quinazolin-4-amine] |  |  |  | 27% | > 20 µM
CC(=O)Nc1ccc2nc(C)nc(NC(C)c3ccc(-c4ccccc4CN(C)C)s3)c2c1 (stereo not shown) [Example 420, N-(4-{[1-(5-{2-[(dimethylamino)methyl]phenyl}thiophen-2-yl)ethyl]amino}-2-methylquinazolin-6-yl)acetamide] | 384 nM |  | > 20 µM |  | 
Cc1nc(NC(C)c2ccc(-c3ccccc3CN(C)C)s2)c2cc(NS(C)(=O)=O)ccc2n1 (stereo not shown) [Example 438, N-(4-{[1-(5-{2-[(dimethylamino)methyl]phenyl}thiophen-2-yl)ethyl]amino}-2-methylquinazolin-6-yl)methanesulfonamide] | 65.5 nM |  | > 20 µM |  | 
Cc1nc(NC(C)c2ccc(Br)s2)c2cc(N3CCCC3)ccc2n1 (stereo not shown) [Example 419, N-[1-(5-bromothiophen-2-yl)ethyl]-2-methyl-6-(pyrrolidin-1-yl)quinazolin-4-amine] | 3740 nM |  | > 20 µM |  | 
Cc1nc(N[C@H](C)c2cccc(Cl)c2)c2cc(C(C)(C)O)ccc2n1 [Example 392, 2-(4-{[(1R)-1-(3-chlorophenyl)ethyl]amino}-2-methylquinazolin-6-yl)propan-2-ol] | 1190 nM |  | > 20 µM |  | 
COc1cc2nc(C)nc(NC(C)c3ccc(-c4ccc(C5CC5)cc4CN(C)C)s3)c2cc1OC (stereo not shown) [Example 443, N-[1-(5-{4-cyclopropyl-2-[(dimethylamino)methyl]phenyl}thiophen-2-yl)ethyl]-6,7-dimethoxy-2-methylquinazolin-4-amine] | 60.5 nM |  | > 20 µM |  | 
COc1cc2nc(C)nc(NC(C)c3cc(C)c(-c4ccccc4CN(C)CCO)s3)c2cc1OC (stereo not shown) [Example 401, 2-{[2-(5-{1-[(6,7-dimethoxy-2-methylquinazolin-4-yl)amino]ethyl}-3-methyl-2-thienyl)benzyl](methyl)amino}ethanol] | 65.2 nM |  | > 20 µM |  | 
COc1cc2nc(C)nc(NC(C)c3ccc(-c4ccc(C#N)cc4CN(C)C)s3)c2cc1OC (stereo not shown) [Example 413, 4-(5-{1-[(6,7-dimethoxy-2-methylquinazolin-4-yl)amino]ethyl}thiophen-2-yl)-3-[(dimethylamino)methyl]benzonitrile] | 262 nM |  | > 20 µM |  | 
COc1cc2nc(C)nc(NC(C)c3ccc(-c4cccc(Cl)c4CN)s3)c2cc1OC (stereo not shown) [Example 397, N-[1-{5-[2-(aminomethyl)-3-chlorophenyl]thiophen-2-yl}ethyl]-6,7-dimethoxy-2-methylquinazolin-4-amine] | 209 nM |  | > 20 µM |  | 
Cc1nc(N[C@H](C)c2cccc(Cl)c2)c2cc(-c3cn[nH]c3)ccc2n1 [Example 405, N-[(1R)-1-(3-chlorophenyl)ethyl]-2-methyl-6-(1H-pyrazol-4-yl)quinazolin-4-amine] | 448 nM |  | > 20 µM |  | 
COc1cc2nc(C)nc(NC(C)c3ccc(-c4ccccc4C(O)c4ccccc4)s3)c2cc1OC (stereo not shown) [Example 374, [2-(5-{1-[(6,7-dimethoxy-2-methylquinazolin-4-yl)amino]ethyl}thiophen-2-yl)-phenyl](phenyl)methanol] | 2550 nM | > 20 µM |  |  | 
Cc1nc(N[C@H](C)c2cccc(Cl)c2)c2cc(CO)ccc2n1 [Example 373, (4-{[(1R)-1-(3-chlorophenyl)ethyl]amino}-2-methylquinazolin-6-yl)methanol] | 6200 nM | > 20 µM |  |  | 
COc1cc2nc(C)nc(NC(C)c3ccc(-c4ccc(C)cc4CN(C)C)s3)c2cc1OC (stereo not shown) [Example 442, N-[1-(5-{2-[(dimethylamino)methyl]-4-methylphenyl}thiophen-2-yl)ethyl]-6,7-dimethoxy-2-methylquinazolin-4-amine] | 39.4 nM |  | > 20 µM |  | 
Cc1nc(N[C@H](C)c2cccc(Cl)c2)c2cc(C3CC3)ccc2n1 [Example 407, N-[(1R)-1-(3-chlorophenyl)ethyl]-6-cyclopropyl-2-methylquinazolin-4-amine] | 1060 nM |  | > 20 µM |  | 
COc1cc2nc(C)nc(NC(C)c3ccc(=O)[nH]c3)c2cc1OC (single isomer, unassigned; enantiomer 1) [Example 227, 5-{1-[(6,7-dimethoxy-2-methylquinazolin-4-yl)amino]ethyl}pyridin-2(1H)-one, Enantiomer 1] |  |  |  | 24% | > 20 µM
COc1cc2nc(C)nc(NC(C)c3ccc(C4=CCCC4)s3)c2cc1OC (stereo not shown) [Example 231, N-{1-[5-(cyclopent-1-en-1-yl)thiophen-2-yl]ethyl}-6,7-dimethoxy-2-methylquinazolin-4-amine] |  |  |  | 53% | > 20 µM
